In patent publication USH1209H, “No-carrier-added (18F)-N-methylspiroperidol” (The United States of America as represented by the United …, priority 1985, dated 1993):
Like-named read-outs stand apart in the source and are kept apart here.

Legend:
[1] = test system: dopamine receptors; assay: PETT baboon studies: striatum and cerebellum radioactivity after i.v. [^18 F]-N-methylspiroperidol, with (-)- or (+)-butaclamol pretreatment
Text: (§1) A young adult (12 kg) female baboon (Papio anubis) was anesthesized initially with ketamine and subsequently maintained under halothane/nitrous oxide anesthesia for two PETT studies. […] Pett scans were made continually for 4 hrs from the time of radioisotope injection.

[2] = Tissue distribution of radioactivity in mice; format: in vivo, mouse; conditions: for tissue uptake at 5 min / tissue uptake at 1 h / tissue uptake at 2 h: read-out: Tissue distribution, % Dose/g
Text: As noted in Example 3 for the rat, the mouse brain uptake of radioactivity was higher for radiolabeled N-methylspiroperidol (1.1% of the administered dose).

[3] = Baboon plasma analyses (total plasma radioactivity clearance and unchanged radioligand); conditions: for remaining at 40 s / remaining at 4 min / remaining at 10 min / remaining at 0.5 h / remaining at 1 h / remaining at 2 h / remaining at 3 h / remaining at 4 h: plasma; for remaining at 40 s: 0.67 min after injection; for remaining at 4 min: 4.0 min after injection; for remaining at 0.5 h: 30 min after injection; for remaining at 1 h: 60 min after injection; for remaining at 2 h: 120 min after injection; for remaining at 3 h: 180 min after injection; for remaining at 4 h: 240 min after injection
Text: as §1
Blood was sampled from the femoral artery at initial intervals of 5 secs. Aliquots of plasma were counted to determine the total plasma radioactivity of clearance curves.

[4] = Metabolic stability and uptake in rat brain (striatum, cerebellum); format: in vivo, rat (male BNL R strain); conditions: for remaining at 1 h / remaining at 4 h: iv, n = 2; for remaining at 1 h: 1 h after injection; for remaining at 4 h: 4 h after injection
[5] = baboon, iv, % [^18 F]-N-Methylspiroperidol in Plasma, baboon plasma
[6] = baboon, iv, % of ^18 F in CH3 CN as [^18 F]-N-Methylspiroperidol, baboon plasma

**Q.** For `CN1CN(c2ccccc2)C2(CCN(CCCC(=O)c3ccc([18F])cc3)CC2)C1=O` [[^18 F]-N-methylspiroperidol], which “specifically bound component of radioactivity in the striatum (striatum minus cerebellum)” value ([1]; 4 hrs after injection) is on record?
**A.** still increasing at 4 hrs after injection

**Q.** And the “striatum and cerebellum radioactivity curves, access to specific binding sites” value ([1]; after 0.5 mg/kg (+)-butaclamol pretreatment)?
**A.** no longer had access to specific binding sites

**Q.** And the “radioactivity in the cerebellum” value ([1]; after the first few minutes, control study)?
**A.** declined rapidly in the cerebellum

**Q.** What about the “absolute striatal uptake, excess over [^18 F]spiroperidol” value ([1]; control study, (-)-butaclamol 0.5 mg/kg pretreatment) of the same compound?
**A.** more than two-fold

**Q.** What about the “Influx into striatum and cerebellum” value ([1]; first few minutes, control study) of the same compound?
**A.** equal for the first few minutes

**Q.** And the “radioactivity in the striatum” value ([1]; up to 4 hrs, control study)?
**A.** increasing for up to 4 hrs in the striatum

**Q.** What about the “tissue distribution of radioactivity compared with that reported for N-[^11 C] methylspiroperidol” value ([2]; mouse) of the same compound?
**A.** very little difference

**Q.** And the tissue uptake at 5 min ([2]; mouse blood, 5 min, mean of three mice, range 1.0-1.5)?
**A.** 1.2 %ID/g

**Q.** What about the tissue uptake at 1 h ([2]; mouse blood, 60 min, mean of three mice, range 0.40-0.50) of the same compound?
**A.** 0.45 %ID/g

**Q.** And the tissue uptake at 2 h ([2]; mouse blood, 120 min, mean of four mice, range 0.15-0.27)?
**A.** 0.19 %ID/g

**Q.** And the “mouse brain uptake of radioactivity” value ([2]; mouse brain)?
**A.** 1.1 % of the administered dose

**Q.** What about the “Tissue distribution, % Dose/Organ” value ([2]; mouse brain, 5 min, mean of three mice, range 1.0-1.1) of the same compound?
**A.** 1.1 % Dose/Organ

**Q.** What about the tissue uptake at 5 min ([2]; mouse brain, 5 min, mean of three mice, range 2.2-2.4) of the same compound?
**A.** 2.3 %ID/g

**Q.** What about the “Tissue distribution, % Dose/Organ” value ([2]; mouse brain, 60 min, mean of three mice, range 0.60-0.74) of the same compound?
**A.** 0.68 % Dose/Organ

**Q.** What about the tissue uptake at 1 h ([2]; mouse brain, 60 min, mean of three mice, range 1.3-1.8) of the same compound?
**A.** 1.5 %ID/g

**Q.** What about the “Tissue distribution, % Dose/Organ” value ([2]; mouse brain, 120 min, mean of four mice, range 0.43-0.68) of the same compound?
**A.** 0.57 % Dose/Organ

**Q.** And the tissue uptake at 2 h ([2]; mouse brain, 120 min, mean of four mice, range 1.1-1.6)?
**A.** 1.3 %ID/g

**Q.** And the “Tissue distribution, % Dose/Organ” value ([2]; mouse heart, 5 min, mean of three mice, range 0.35-0.42)?
**A.** 0.37 % Dose/Organ

**Q.** And the tissue uptake at 5 min ([2]; mouse heart, 5 min, mean of three mice, range 3.2-3.4)?
**A.** 3.3 %ID/g

**Q.** What about the “Tissue distribution, % Dose/Organ” value ([2]; mouse heart, 60 min, mean of three mice, range 0.064-0.076) of the same compound?
**A.** 0.072 % Dose/Organ

**Q.** What about the tissue uptake at 1 h ([2]; mouse heart, 60 min, mean of three mice, range 0.59-0.65) of the same compound?
**A.** 0.61 %ID/g

**Q.** What about the “Tissue distribution, % Dose/Organ” value ([2]; mouse heart, 120 min, mean of four mice, range 0.020-0.030) of the same compound?
**A.** 0.026 % Dose/Organ

**Q.** What about the tissue uptake at 2 h ([2]; mouse heart, 120 min, mean of four mice, range 0.18-0.35) of the same compound?
**A.** 0.24 %ID/g

**Q.** And the “Tissue distribution, % Dose/Organ” value ([2]; mouse kidneys, 5 min, mean of three mice, range 4.2-4.8)?
**A.** 4.5 % Dose/Organ

**Q.** And the tissue uptake at 5 min ([2]; mouse kidneys, 5 min, mean of three mice, range 11-13)?
**A.** 12 %ID/g

**Q.** And the “Tissue distribution, % Dose/Organ” value ([2]; mouse kidneys, 60 min, mean of three mice, range 1.1-1.3)?
**A.** 1.2 % Dose/Organ

**Q.** And the tissue uptake at 1 h ([2]; mouse kidneys, 60 min, mean of three mice, range 3.0-4.0)?
**A.** 3.4 %ID/g

**Q.** And the “Tissue distribution, % Dose/Organ” value ([2]; mouse kidneys, 120 min, mean of four mice, range 0.40-0.57)?
**A.** 0.46 % Dose/Organ

**Q.** What about the tissue uptake at 2 h ([2]; mouse kidneys, 120 min, mean of four mice, range 1.2-1.8) of the same compound?
**A.** 1.5 %ID/g

**Q.** What about the tissue uptake at 5 min ([2]; mouse liver, 5 min, mean of three mice, range 5.2-5.7) of the same compound?
**A.** 5.4 %ID/g

**Q.** And the “Tissue distribution, % Dose/Organ” value ([2]; mouse liver, 5 min, mean of three mice, range 8.2-8.3)?
**A.** 8.2 % Dose/Organ

**Q.** What about the tissue uptake at 1 h ([2]; mouse liver, 60 min, mean of three mice, range 2.4-3.4) of the same compound?
**A.** 2.9 %ID/g

**Q.** And the “Tissue distribution, % Dose/Organ” value ([2]; mouse liver, 60 min, mean of three mice, range 3.8-4.1)?
**A.** 4.0 % Dose/Organ

**Q.** And the tissue uptake at 2 h ([2]; mouse liver, 120 min, mean of four mice, range 1.2-1.9)?
**A.** 1.4 %ID/g

**Q.** And the “Tissue distribution, % Dose/Organ” value ([2]; mouse liver, 120 min, mean of four mice, range 1.5-1.8)?
**A.** 1.6 % Dose/Organ

**Q.** And the “Tissue distribution, % Dose/Organ” value ([2]; mouse lungs, 5 min, mean of three mice, range 2.0-2.1)?
**A.** 2.0 % Dose/Organ

**Q.** What about the tissue uptake at 5 min ([2]; mouse lungs, 5 min, mean of three mice, range 11-14) of the same compound?
**A.** 13 %ID/g

**Q.** And the “Tissue distribution, % Dose/Organ” value ([2]; mouse lungs, 60 min, mean of three mice, range 0.24-0.29)?
**A.** 0.27 % Dose/Organ

**Q.** What about the tissue uptake at 1 h ([2]; mouse lungs, 60 min, mean of three mice, range 1.6-2.3) of the same compound?
**A.** 1.9 %ID/g

**Q.** And the “Tissue distribution, % Dose/Organ” value ([2]; mouse lungs, 120 min, mean of four mice, range 0.09-0.16)?
**A.** 0.12 % Dose/Organ

**Q.** And the tissue uptake at 2 h ([2]; mouse lungs, 120 min, mean of four mice, range 0.70-1.50)?
**A.** 0.95 %ID/g

**Q.** What about the “Tissue distribution, % Dose/Organ” value ([2]; mouse ovaries, 60 min, mean of three mice, range 0.028-0.057) of the same compound?
**A.** 0.040 % Dose/Organ

**Q.** What about the “Tissue distribution, % Dose/Organ” value ([2]; mouse ovaries, 120 min, mean of four mice, range 0.009-0.022) of the same compound?
**A.** 0.014 % Dose/Organ

**Q.** And the “Tissue distribution, % Dose/Organ” value ([2]; mouse small intestine, 5 min, mean of three mice, range 3.2-6.8)?
**A.** 5.3 % Dose/Organ

**Q.** What about the tissue uptake at 5 min ([2]; mouse small intestine, 5 min, mean of three mice, range 4.0-4.8) of the same compound?
**A.** 4.3 %ID/g

**Q.** And the “Tissue distribution, % Dose/Organ” value ([2]; mouse small intestine, 60 min, mean of three mice, range 1.6-3.6)?
**A.** 2.9 % Dose/Organ

**Q.** What about the tissue uptake at 1 h ([2]; mouse small intestine, 60 min, mean of three mice, range 1.7-3.4) of the same compound?
**A.** 2.5 %ID/g

**Q.** And the “Tissue distribution, % Dose/Organ” value ([2]; mouse small intestine, 120 min, mean of four mice, range 0.7-1.9)?
**A.** 1.3 % Dose/Organ

**Q.** And the tissue uptake at 2 h ([2]; mouse small intestine, 120 min, mean of four mice, range 0.8-1.7)?
**A.** 1.3 %ID/g

**Q.** And the “Tissue distribution, % Dose/Organ” value ([2]; mouse spleen, 5 min, mean of three mice, range 0.82-1.05)?
**A.** 0.95 % Dose/Organ

**Q.** What about the tissue uptake at 5 min ([2]; mouse spleen, 5 min, mean of three mice, range 4.7-6.5) of the same compound?
**A.** 5.8 %ID/g

**Q.** And the “Tissue distribution, % Dose/Organ” value ([2]; mouse spleen, 60 min, mean of three mice, range 0.25-0.28)?
**A.** 0.26 % Dose/Organ

**Q.** What about the tissue uptake at 1 h ([2]; mouse spleen, 60 min, mean of three mice, range 1.1-1.9) of the same compound?
**A.** 1.6 %ID/g

**Q.** And the “Tissue distribution, % Dose/Organ” value ([2]; mouse spleen, 120 min, mean of four mice, range 0.043-0.073)?
**A.** 0.062 % Dose/Organ

**Q.** And the tissue uptake at 2 h ([2]; mouse spleen, 120 min, mean of four mice, range 0.40-0.73)?
**A.** 0.57 %ID/g

**Q.** And the “time course of distribution compared with [^18 F]spiroperidol” value ([3]; Example 2)?
**A.** more rapid

**Q.** What about the “appearance of peripheral radioactive metabolites compared with [^18 F]spiroperidol” value ([3]; baboon plasma) of the same compound?
**A.** more rapid

**Q.** And the “time for blood radioactivity to drop below the brain concentration” value ([3]; baboon, after injection)?
**A.** ≤ 90 s

**Q.** And the remaining at 40 s [3, 5]?
**A.** 81%

**Q.** What about the remaining at 4 min [3, 5] of the same compound?
**A.** 66%

**Q.** What about the remaining at 10 min ([3]; baboon, iv, % [^18 F]-N-Methylspiroperidol in Plasma, baboon plasma, 10 min after injection) of the same compound?
**A.** 43%

**Q.** What about the remaining at 0.5 h [3, 5] of the same compound?
**A.** 18%

**Q.** What about the remaining at 1 h [3, 5] of the same compound?
**A.** 18%

**Q.** What about the remaining at 2 h [3, 5] of the same compound?
**A.** 11%

**Q.** What about the remaining at 3 h [3, 5] of the same compound?
**A.** 11%

**Q.** And the remaining at 4 h [3, 5]?
**A.** 9.4%

**Q.** And the remaining at 40 s [3, 6]?
**A.** 88%

**Q.** What about the remaining at 4 min [3, 6] of the same compound?
**A.** 78%

**Q.** What about the remaining at 10 min ([3]; baboon, iv, % of ^18 F in CH3 CN as [^18 F]-N-Methylspiroperidol, baboon plasma, 10 min after injection) of the same compound?
**A.** 60%

**Q.** What about the remaining at 0.5 h [3, 6] of the same compound?
**A.** 32%

**Q.** What about the remaining at 1 h [3, 6] of the same compound?
**A.** 36%

**Q.** And the remaining at 2 h [3, 6]?
**A.** 26%

**Q.** And the remaining at 3 h [3, 6]?
**A.** 29%

**Q.** And the remaining at 4 h [3, 6]?
**A.** 26%

**Q.** And the remaining at 10 min ([3]; baboon, plasma radioactivity due to unaltered radioligand, baboon plasma, 10 mins after injection)?
**A.** 43%

**Q.** And the blood clearance ([3]; baboon, total plasma radioactivity)?
**A.** very rapid

**Q.** What about the remaining at 1 h ([4]; rat cerebellum, ind. values 90, 90) of the same compound?
**A.** 90%

**Q.** What about the remaining at 4 h ([4]; rat cerebellum, ind. values 85, 85) of the same compound?
**A.** 85%

**Q.** And the remaining at 1 h ([4]; rat striatum, ind. values 95, 96)?
**A.** 96%

**Q.** And the remaining at 4 h ([4]; rat striatum, ind. values 98, 97)?
**A.** 98%

**Q.** And the “metabolism in the rat brain” value ([4]; rat brain)?
**A.** very little metabolism
